This is an account of results in patent US20260159511A1, “SMALL MOLECULE STING ANTAGONISTS” (CURADEV PHARMA PVT. LTD., priority 2021, published 2026).

This experiment has as its system IRF pathway in THP1-Dual™ cells, THP-1 (HAQ). In words: Reporter gene expression assay in THP-1 cells (THP1-Dual, IRF pathway Lucia luciferase reporter, 2′,3′-cGAMP stimulation). Format: cell-based, human. Particulars: THP1-Dual cells preincubated with compound 10 minutes, stimulation with 5 μM 2′,3′-cGAMP for 20 hr, QUANTI-Luc readout of the supernatant, read-out: THP-1 (HAQ) Activity (IC50 value range). The method, then:
Reporter Gene Expression Assay in THP-1 Cells
THP1-Dual™ cells (Invivogen) were derived from the human THP-1 monocyte cell line by stable integration of two inducible reporter constructs. As a result, THP1-Dual™ cells allow the simultaneous study of the IRF pathway, by assessing the activity of a secreted luciferase (Lucia) and the NF-κB pathway, by monitoring the activity of secreted SEAP. 5×10^4 THP1-Dual™ cells were seeded in 384-well plates in growth medium and preincubated with novel compounds for 10 minutes followed by stimulation with 5 μM 2′,3′-cGAMP. After 20 hr of stimulation the supernatant was removed and the IRF pathway reporter protein was readily measured in the cell culture supernatant using QUANTI-Luc™ (Invivogen), a luciferase detection reagent on a Spectramax i3X luminometer.
For orientation: Reporter assays use an easily measured gene product as a stand-in for the process of interest.

SMILES strings stand for the structures. Read-outs that look alike come from different tables or passages of the source.

A word on the IC50: it is the concentration that gives 50% inhibition. For `O=C(Nc1ccc2c(c1)N(c1ccccc1)CCS2)Nc1c[nH]c2ccccc12` [Example 103, 1-(1H-indol-3-yl)-3-(4-phenyl-3,4-dihydro-2H-benzo[b][1,4]thiazin-6-yl)urea], the IC50 (Homo sapiens) is less than 1000 nM.

In the case of `O=C1Cc2ccc(-c3ccc4[nH]cc(NC(=O)Nc5ccc6c(c5)N(Cc5ccccc5)C(=O)CS6)c4c3)cc2N1` [Example 62, 1-(4-benzyl-3-oxo-3,4-dihydro-2H-benzo[b][1,4]thiazin-6-yl)-3-(5-(2-oxoindolin-6-yl)-1H-indol-3-yl)urea], the IC50 (Homo sapiens) is less than 1000 nM. Same read-out and setting: in the case of `CC1CN(Cc2cc(F)cc(F)c2)c2cc(NC(=O)Nc3c[nH]c4ccccc34)ccc2S1` (centres unmarked) [Example 94, 1-(4-(3,5-difluorobenzyl)-2-methyl-3,4-dihydro-2H-benzo[b][1,4]thiazin-6-yl)-3-(1H-indol-3-yl)urea] it was less than 1000 nM; in that of `O=C(Nc1ccc2c(c1)N(Cc1ccccc1)C(=O)CS2)Nc1c[nH]c2cnccc12` [Example 15, 1-(4-benzyl-3-oxo-3,4-dihydro-2H-benzo[b][1,4]thiazin-6-yl)-3-(1H-pyrrolo[2,3-c]pyridin-3-yl)urea], less than 1000 nM; in that of `CC1Sc2ccc(NC(=O)Nc3c[nH]c4ccccc34)cc2N(Cc2cc(F)cc(F)c2)C1=O` (centres unmarked) [Example 33, 1-(4-(3,5-difluorobenzyl)-2-methyl-3-oxo-3,4-dihydro-2H-benzo[b][1,4]thiazin-6-yl)-3-(1H-indol-3-yl)urea], less than 1000 nM. The same measure, in the same setting: in the case of `O=C(Nc1ccc2c(c1)N(Cc1cc(F)cc(F)c1)C(=O)CS2)Nc1c[nH]c2ccc(F)cc12` [Example 32, 1-(4-(3,5-difluorobenzyl)-3-oxo-3,4-dihydro-2H-benzo[b][1,4]thiazin-6-yl)-3-(5-fluoro-1H-indol-3-yl)urea] it was less than 1000 nM.

Consider `Cc1cc(CN2CCSc3cc(NC(=O)Nc4c[nH]c5ccccc45)ccc32)on1` [Example 86, 1-(1H-indol-3-yl)-3-(4-((3-methylisoxazol-5-yl)methyl)-3,4-dihydro-2H-benzo[b][1,4]thiazin-7-yl)urea], for which the IC50 (Homo sapiens) is less than 1000 nM.

Take `O=C(Nc1ccc2c(c1)SCCN2Cc1ccccn1)Nc1c[nH]c2ccccc12` [Example 89, 1-(1H-indol-3-yl)-3-(4-(pyridin-2-ylmethyl)-3,4-dihydro-2H-benzo[b][1,4]thiazin-7-yl)urea]: under “Homo sapiens”, the IC50 was less than 1000 nM. Regarding `O=C(Nc1ccc2c(c1)SCCN2C(=O)c1ccccc1)Nc1c[nH]c2ccccc12` [Example 80, 1-(4-benzoyl-3,4-dihydro-2H-benzo[b][1,4]thiazin-7-yl)-3-(1H-indol-3-yl)urea], the IC50 (Homo sapiens) is less than 1000 nM. Take `O=C(Nc1ccc2c(c1)N(c1ccccn1)CCS2)Nc1c[nH]c2ccccc12` [Example 105, 1-(1H-indol-3-yl)-3-(4-(pyridin-2-yl)-3,4-dihydro-2H-benzo[b][1,4]thiazin-6-yl)urea]: where the note is “Homo sapiens”, the IC50 is less than 1000 nM. Take `O=C(Nc1ccc2c(c1)SCCN2Cc1cc(F)cc(F)c1)Nc1c[nH]c2ccccc12` [Example 88, 1-(4-(3,5-difluorobenzyl)-3,4-dihydro-2H-benzo[b][1,4]thiazin-7-yl)-3-(1H-indol-3-yl)urea]: the IC50 (Homo sapiens) was less than 1000 nM. Same read-out and setting: in the case of `O=C(Nc1ccc2c(c1)N(Cc1noc3ccccc13)C(=O)CS2)Nc1c[nH]c2ccccc12` [Example 26, 1-(4-(benzo[d]isoxazol-3-ylmethyl)-3-oxo-3,4-dihydro-2H-benzo[b][1,4]thiazin-6-yl)-3-(1H-indol-3-yl)urea] it was less than 1000 nM; in that of `O=C(Nc1ccc2c(c1)N(Cc1ccccc1)C(=O)CS2)Nc1c[nH]c2ccc(F)cc12` [Example 1, 1-(4-benzyl-3-oxo-3,4-dihydro-2H-benzo[b][1,4]thiazin-6-yl)-3-(5-fluoro-1H-indol-3-yl)urea], less than 1000 nM. On the same count and under the same terms, for `COc1cccc(-c2ccc3[nH]cc(NC(=O)Nc4ccc5c(c4)N(Cc4ccccc4)C(=O)CS5)c3c2)c1` [Example 53, 1-(4-benzyl-3-oxo-3,4-dihydro-2H-benzo[b][1,4]thiazin-6-yl)-3-(5-(3-methoxyphenyl)-1H-indol-3-yl)urea] the value was less than 1000 nM; for `O=C(Nc1ccc2c(c1)OCCN2Cc1ccccc1)Nc1c[nH]c2ccccc12` [Example 72, 1-(4-benzyl-3,4-dihydro-2H-benzo[b][1,4]oxazin-7-yl)-3-(1H-indol-3-yl)urea], less than 1000 nM; for `N#Cc1ccc2[nH]cc(NC(=O)Nc3ccc4c(c3)N(Cc3ccccc3)CCS4)c2c1` [Example 109, 1-(4-benzyl-3,4-dihydro-2H-benzo[b][1,4]thiazin-6-yl)-3-(5-cyano-1H-indol-3-yl)urea], less than 1000 nM. `O=C(Nc1ccc2c(c1)N(Cc1ccccc1)C(=O)CS2)Nc1c[nH]c2ccc(-c3cncc(Cl)c3)cc12` [Example 57, 1-(4-benzyl-3-oxo-3,4-dihydro-2H-benzo[b][1,4]thiazin-6-yl)-3-(5-(5-chloropyridin-3-yl)-1H-indol-3-yl)urea]: under “Homo sapiens”, the IC50 is less than 1000 nM. Still for that read-out and setting: in the case of `O=C(Nc1ccc2c(c1)N(Cc1ccccc1)CCO2)Nc1c[nH]c2ccccc12` [Example 71, 1-(4-benzyl-3,4-dihydro-2H-benzo[b][1,4]oxazin-6-yl)-3-(1H-indol-3-yl)urea] it was less than 1000 nM; in that of `O=C(Nc1ccc2c(c1)N(Cc1ccccc1)C(=O)CS2)Nc1c[nH]c2ccc(-c3ccc4c(c3)OCO4)cc12` [Example 65, 1-(5-(benzo[d][1,3]dioxol-5-yl)-1H-indol-3-yl)-3-(4-benzyl-3-oxo-3,4-dihydro-2H-benzo[b][1,4]thiazin-6-yl)urea], less than 1000 nM; in that of `O=C(Nc1ccc2c(c1)N(Cc1cc(F)cc(F)c1)CCO2)Nc1c[nH]c2ccc(F)cc12` [Example 91, 1-(4-(3,5-difluorobenzyl)-3,4-dihydro-2H-benzo[b][1,4]oxazin-6-yl)-3-(5-fluoro-1H-indol-3-yl)urea], less than 1000 nM.

Regarding `O=C(Nc1ccc2c(c1)N(Cc1ccccc1)C(=O)CS2)Nc1c[nH]c2ccncc12` [Example 14, 1-(4-benzyl-3-oxo-3,4-dihydro-2H-benzo[b][1,4]thiazin-6-yl)-3-(1H-pyrrolo[3,2-c]pyridin-3-yl)urea], the IC50 (Homo sapiens) was 1000 to 10000 nM. On the same count and under the same terms, for `O=C(Nc1ccc2c(c1)N(C(=O)c1ccccc1)CCS2)Nc1c[nH]c2ccccc12` [Example 79, 1-(4-benzoyl-3,4-dihydro-2H-benzo[b][1,4]thiazin-6-yl)-3-(1H-indol-3-yl)urea] the value was less than 1000 nM.

For the molecule `O=C(Nc1ccc2c(c1)SCC(=O)N2Cc1c(F)cccc1Cl)Nc1c[nH]c2ccccc12` [Example 12, 1-(4-(2-chloro-6-fluorobenzyl)-3-oxo-3,4-dihydro-2H-benzo[b][1,4]thiazin-7-yl)-3-(1H-indol-3-yl)urea], the IC50 (Homo sapiens) is less than 1000 nM. The same measure, in the same setting: for `C[C@H]1c2ccc(NC(=O)Nc3c[nH]c4ccccc34)cc2N(Cc2c(F)ccc(O)c2Cl)C(=O)N1C` [Example 108, (S)-1-(1-(2-chloro-6-fluoro-3-hydroxybenzyl)-3,4-dimethyl-2-oxo-1,2,3,4-tetrahydroquinazolin-7-yl)-3-(1H-indol-3-yl)urea] the value was 1000 to 10000 nM; for `O=C(Nc1ccc2c(c1)N(Cc1cc(F)cc(Cl)c1)CCS2)Nc1c[nH]c2ccc(F)cc12` [Example 101, 1-(4-(3-chloro-5-fluorobenzyl)-3,4-dihydro-2H-benzo[b][1,4]thiazin-6-yl)-3-(5-fluoro-1H-indol-3-yl)urea], less than 1000 nM. Still for that read-out and setting: for `O=C(Nc1ccc2c(c1)N(Cc1ccccn1)C(=O)CS2)Nc1c[nH]c2ccccc12` [Example 19, 1-(1H-indol-3-yl)-3-(3-oxo-4-(pyridin-2-ylmethyl)-3,4-dihydro-2H-benzo[b][1,4]thiazin-6-yl)urea] the value was 1000 to 10000 nM; for `NC(=O)c1ccccc1CN1C(=O)CSc2ccc(NC(=O)Nc3c[nH]c4ccccc34)cc21` [Example 22, 2-((6-(3-(1H-indol-3-yl)ureido)-3-oxo-2,3-dihydro-4H-benzo[b][1,4]thiazin-4-yl)methyl)benzamide], 1000 to 10000 nM. As for `CC1Sc2cc(NC(=O)Nc3c[nH]c4ccccc34)ccc2N(Cc2ccccc2)C1=O` (centres unmarked) [Example 30, 1-(4-benzyl-2-methyl-3-oxo-3,4-dihydro-2H-benzo[b][1,4]thiazin-7-yl)-3-(1H-indol-3-yl)urea], the IC50 (Homo sapiens) was less than 1000 nM. As for `N#Cc1ccccc1CN1CCSc2cc(NC(=O)Nc3c[nH]c4ccccc34)ccc21` [Example 87, 1-(4-(2-cyanobenzyl)-3,4-dihydro-2H-benzo[b][1,4]thiazin-7-yl)-3-(1H-indol-3-yl)urea], the IC50 (Homo sapiens) is less than 1000 nM. Regarding `N#Cc1cccc(-c2ccc3[nH]cc(NC(=O)Nc4ccc5c(c4)N(Cc4ccccc4)C(=O)CS5)c3c2)c1` [Example 45, 1-(4-benzyl-3-oxo-3,4-dihydro-2H-benzo[b][1,4]thiazin-6-yl)-3-(5-(3-cyanophenyl)-1H-indol-3-yl)urea], the IC50 (Homo sapiens) is less than 1000 nM. Still for that read-out and setting: for `CC1Sc2ccc(NC(=O)Nc3c[nH]c4ccccc34)cc2N(Cc2c(F)cccc2Cl)C1=O` (centres unmarked) [Example 27, 1-(4-(2-chloro-6-fluorobenzyl)-2-methyl-3-oxo-3,4-dihydro-2H-benzo[b][1,4]thiazin-6-yl)-3-(1H-indol-3-yl)urea] the value was less than 1000 nM. As for `CC1Sc2ccc(NC(=O)Nc3c[nH]c4ccccc34)cc2N(Cc2ccccc2)C1=O` (centres unmarked) [Example 36, 1-(4-benzyl-2-methyl-3-oxo-3,4-dihydro-2H-benzo[b][1,4]thiazin-6-yl)-3-(1H-indol-3-yl)urea], the IC50 was less than 1000 nM.
